Experimental findings from patent US20230390315A1, “COMPOSITIONS AND METHODS FOR TREATING ISCHEMIC CONDITIONS” (The Regents of the University of California, priority 2020, published 2023) are described below.

Series [1] in a line: ManN stability in wound fluid from S. aureus infected mice. The format is in vitro ADME, mouse. The following applies: up to 24 hours at 37° C. How it is done: To test ManN stability in wound fluid collected from mice with skin infection as described below, 1.5 μl of 5% ManN solution was added to each 200 μl wound fluid which was first diluted 1:1 (v/v) with PBS. At each time point, samples were taken from 37° C. incubator and stored at −80° C. Plasma proteins were precipitated by adding ice cold acetonitrile to plasma: acetonitrile 1:3 (v/v) ratio. Samples were kept over ice for 1 hr and then centrifuged at 12000 g for 10 min at 7° C. to form a pellet. Supernatants were transferred to other tubed, dried down on a Speed Vac and then reconstituted in UltraPure distilled water and filtered through pre-washed Nanosep 3K Omega filters (Pall Corporation). The filtrate was dried down on Speed Vac. The dry samples were dissolved in 100 μl of water and 2 μL plasma or wound fluid sample was subjected to HPLC analysis. Neutral and amino sugars were separated on a Dionex CarboPac™ PA1 column 4 mm×250 mm with 4 mm×50 mm guard column. An isocratic gradient of 19 mM sodium hydroxide with 0.95 mM sodium acetate was used at a flow rate of 1 ml/min with 20 min run. Data was collected using the Dionex ICS-3000 HPLC system with pulsed amperometric detector using standard Quad waveform. ManN was identified and quantified by comparison with monosaccharide standard using Thermo Scientific Chromeleon software. No ManN samples served as negative controls. […]

The subject of series [2] is A673. The series can be described thus: A673 proliferation assay. The series is classed as cell-based, human. How it is done:
Proliferation assays with fibroblasts were done in low-glucose DMEM containing 1% FBS, with or without 10 ng/ml bFGF, or 100 ng/ml human EGF and the assay was ended at day 3. ARPE-19 cells were gently lifted with 0.025% trypsin and plated in RtEGM media (Clonetics) containing 2% FBS, L-glutamine, human bFGF and GA-1000. Once cells were attached to plates, serum-free RtEGM media was used to maintain the cultures. For proliferation assays, 1500 human RPE cells were plated into 96-well plates in low-glucose DMEM containing 1% FBS. A673, U87MG, Calu6 and AML12 cells were grown until confluent and were then harvested and re-suspended in appropriate assay media. For proliferation assays, cells were plated at the density of 1000-2000 cells/well in low-glucose DMEM containing 5% FBS or otherwise stated. Bovine pituitary cells (pituitary folliculostellate cells) were isolated as previously described. For proliferation assays with human epidermal keratinocytes, human DMVECs and human dermal fibroblast cells, 1000 cells/well were plated in low-glucose DMEM containing 1% FBS with or without various growth factors. The assay was ended at day 3 for bovine pituitary cells and at day 4 for all the other cell types. […] Four days later, tumor cell growth was measured by the MTS assay (Promega, Madison, WI), a colorimetric assay that measures metabolic activity of viable cells. […]

As to `N[C@H](C=O)[C@@H](O)[C@H](O)[C@H](O)CO` [ManN, 2-Amino-2-deoxy-D-mannose], the “loss of free ManN on incubation with wound fluid” value in series [1] is listed as “No significant loss of free ManN”. Further, the “growth of A673” value in series [2] is on record as “did not promote growth”.
